Measured values reported in article PMC11002876, “KcsA-Kv1.x chimeras with complete ligand-binding sites provide improved predictivity for screening selective Kv1.x blockers” (The Journal of Biological Chemistry, 2024).
Entries after “also recorded” stand apart in the source; their conditions may differ. Where a SMILES comes first, the peptide text is derived from it.

How the values were obtained:
Assay type in all cases: cell-based
[1] = test system: human Kv1.3 channel (hKv1.3); conditions: native peptides at 0.1 nM; human lymphocytes; Figs. 6A, S1
Procedure: (§1) Human Kv1.3 currents were recorded from activated peripheral blood mononuclear cells (see below) 3 to 4 days after activation. Heparinized human peripheral venous blood was obtained from healthy volunteers. Mononuclear cells were separated through Histopaque-1077 density gradient centrifugation. Collected cells were washed twice with Ca^2+- and Mg^2+-free Hanks’ solution containing 25 mM Hepes buffer, pH 7.4. Cells were cultured for 3 to 4 days in 24-well culture plates in a 5% CO2 incubator at 37 °C, in RPMI 1640 medium supplemented with 10% fetal calf serum (Sigma-Aldrich), 100 μg/ml penicillin, 100 μg/ml streptomycin, and 2 mM L-glutamine (density, 0.5 × 10^6 cells per ml). Phytohemagglutinin A (Sigma-Aldrich) was added to the medium at 10 μg/ml to amplify the Kv1.3 expression. Cells were washed gently twice with 2 ml of ECS for the patch-clamp experiments.
(§2) Conventional whole-cell patch-clamp electrophysiology was used to record ionic currents. Micropipettes were pulled from GC150F-7.5 borosilicate capillaries (Harvard Apparatus) with tip diameters between 0.5 and 1 μm resulting in a tip resistance of 2 to 8 MΩ in the extracellular (bath) solution. All measurements were carried out by using Axopatch 200B amplifier connected to a personal computer using Axon Digidata 1550A data acquisition hardware and Pclamp10.7 software (https://support.moleculardevices.com/s/article/Axon-pCLAMP-10-Electrophysiology-Data-Acquisition-Analysis-Software-Download-Page). The holding potential was −120 mV. Records were discarded when leak at the holding potential was >10% of peak current at the test potential. Experiments were performed at room temperature (20–24 °C). Before analysis, whole-cell current traces were corrected for ohmic leakage and digitally filtered with a three-point boxcar smoothing filter.
Solutions: all salts and components of the solutions were purchased from Sigma Aldrich. […]
(§3) Native peptides, phage-expressed peptides, and positive controls used for them were dissolved in ECS supplemented with 0.1 mg/ml bovine serum albumin (BSA; Sigma-Aldrich Hungary). Bath perfusion around the measured cell with different extracellular solutions was achieved using a gravity flow micro perfusion system using a rate of 0.5 ml/min. […]
(§4) Voltage protocols: For measurement of Kv1.1 to 1.3 currents, voltage steps to +50 mV were applied from a holding potential of −120 mV and the peak current was measured every 15 s. […] The remaining current fraction at a given molar concentration was calculated as I/I0, where I0 is the peak current in the absence and I is the peak current at equilibrium block or […] after ∼2 min perfusion by the investigated peptide/phage.

[2] = test system: human Kv1.3 channel (hKv1.3); assay: Whole-cell patch-clamp of phage-displayed toxins, hKv1.3 in human lymphocytes; conditions: for estimated relative potency in phage-displayed form: from phage concentrations required to reach 50% block of hKv1.3 current, Vm24 = 1, Fig. 9B; for inhibition of Kv1.3 current in phage-displayed form, in words: phage-displayed peptide, DDDKTX1- and KTX1-phage at 3.6 × 10^13 particle/ml
Procedure: as §1, §2
Solutions: all salts and components of the solutions were purchased from Sigma Aldrich. The extracellular (bath) solution (ECS) contained 145 mM NaCl, 5 mM KCl, 2.5 mM CaCl2, 1 mM MgCl2, 10 mM Hepes, and 5.5 mM glucose (pH 7.35 with NaOH), while the intracellular (pipette) solution (ICS) contained 140 mM KF, 2 mM MgCl2, 1 mM CaCl2, 11 mM EGTA, and 10 mM Hepes (pH 7.22 with KOH). The osmolarity of the ECS and ICS were 302 mOsM.
Native peptides, phage-expressed peptides, and positive controls used for them were dissolved in ECS supplemented with 0.1 mg/ml bovine serum albumin (BSA; Sigma-Aldrich Hungary). Bath perfusion around the measured cell with different extracellular solutions was achieved using a gravity flow micro perfusion system using a rate of 0.5 ml/min. Excess fluid was removed continuously.
as §4, with “s. For Kv1.3 currents, 15-ms-long depolarizing pulses were applied. For Kv1.1, 50-ms-long–activating stimuli were used. Kv1.2 currents were evoked by 200-ms-long pulses.” for “s.”
Phage display test solutions were prepared according to routine phage display protocols ([62]). Phosphorylated and annealed oligonucleotides encoding the peptide construct were ligated into linearized pAS62 phagemid vector (https://patents.google.com/patent/WO2022144560A1/en) at a vector/insert ratio of 1:3. The final phagemid construct harbored a signal sequence followed by the peptide of interest, a linker sequence ([…]), and the C-terminal part of the P3 coat protein (amino acids: 216-424 of NP_510891.1). Chemically competent XL1-Blue E. coli cells (2022249, Agilent) were transformed with the ligation product and then streaked onto ampicillin (100 μg/ml) containing LB/Amp plates and incubated for 16 h at 37 °C.

[3] = test system: human Kv1.1 channel (hKv1.1); assay: Whole-cell patch-clamp, hKv1.1-expressing CHO cells; conditions: see Table 1 and Fig. S3; 1 nM peptide in patch-clamp
Procedure: Chinese Hamster Ovarian cells were grown in Dulbecco’s modified Eagle’s medium–high glucose supplemented with 10% FBS, 2 mM L-glutamine, 100 U/ml penicillin-g, and 100 μg/ml streptomycin (Invitrogen) at 37 °C in a 5% CO2 and 95% air humidified atmosphere. Cells were passaged twice per week following a 5 min incubation in PBS containing 0.2 g/L EDTA. Chinese Hamster Ovarian cells were transiently transfected with plasmids encoding human Kv1.1 (hKCNA1 gene) and human Kv1.2 (hKCNA2 gene) in pCMV6-AC-GFP plasmid (RG211000 and RC222200, OriGene Technologies) using Lipofectamine 2000 (Invitrogen) following the manufacturer’s protocol, then cultured under standard conditions. Transfected cells were washed twice with 2 ml of extracellular solution (ECS, see below) and replated onto 35 mm polystyrene cell culture dishes (Cellstar, Greiner Bio-One) before the patch-clamp experiments. […] In general, currents were recorded 24 to 36 h after transfection.
Conventional whole-cell patch-clamp electrophysiology was used to record ionic currents. Micropipettes were pulled from GC150F-7.5 borosilicate capillaries (Harvard Apparatus) with tip diameters between 0.5 and 1 μm resulting in a tip resistance of 2 to 8 MΩ in the extracellular (bath) solution. […]
as §3, §4

SMILES	rank order of blocking of native Kv1.3 [1]	estimated relative potency in phage-displayed form [2]	inhibition of Kv1.3 current in phage-displayed form, in words [2]	potency ranking, Kv1.1 [3]
CC[C@H](C)[C@@H]1NC(=O)CNC(=O)[C@H](Cc2ccccc2)NC(=O)[C@H](CCC(N)=O)NC(=O)[C@H](C)NC(=O)[C@H](CCCCN)NC(=O)[C@@H]2CSSC[C@@H](C(=O)N[C@@H](Cc3ccc(O)cc3)C(=O)N3CCC[C@H]3C(=O)N[C@@H](Cc3c[nH]cn3)C(=O)O)NC(=O)[C@H](CCCCN)NC(=O)[C@@H]3CSSC[C@H](NC(=O)[C@H](CCC(N)=O)NC(=O)[C@H](CCCCN)NC(=O)[C@@H]4CCCN4C(=O)[C@H](CO)NC(=O)[C@H]([C@@H](C)O)NC(=O)[C@@H](NC(=O)[C@H](CCCCN)NC(=O)[C@@H](NC(=O)[C@H](CC(=O)O)NC(=O)[C@@H](NC(=O)[C@@H](NC(=O)[C@@H](N)[C@@H](C)O)C(C)C)[C@@H](C)CC)C(C)C)CSSC[C@H](NC(=O)[C@H](CCCCN)NC(=O)[C@H](C)NC(=O)CNC(=O)[C@H](C)NC(=O)[C@H](CCCNC(=N)N)NC1=O)C(=O)N[C@@H](CCSC)C(=O)N[C@@H](CC(N)=O)C(=O)NCC(=O)N[C@@H](CCCCN)C(=O)N3)C(=O)N[C@@H](CC(C)C)C(=O)N1CCC[C@H]1C(=O)N1CCC[C@H]1C(=O)N2 [HgTx1, Hongotoxin-1] (HELM PEPTIDE1{T.V.I.D.V.K.C.T.S.P.K.Q.C.L.P.P.C.K.A.Q.F.G.I.R.A.G.A.K.C.M.N.G.K.C.K.C.Y.P.H}$PEPTIDE1,PEPTIDE1,7:R3-29:R3|PEPTIDE1,PEPTIDE1,13:R3-34:R3|PEPTIDE1,PEPTIDE1,17:R3-36:R3$$$V2.0; N-terminus and C-terminus assumed)	Vm24 > HgTX1 > KTX1	1/30	significant inhibition	
CC[C@H](C)[C@H](NC(=O)[C@H](CCC(=O)O)NC(=O)[C@@H](NC(=O)CN)C(C)C)C(=O)N[C@@H](CC(N)=O)C(=O)N[C@H](C(=O)N[C@@H](CCCCN)C(=O)N[C@H]1CSSC[C@@H]2NC(=O)[C@H](CCCCN)NC(=O)CNC(=O)[C@H](Cc3ccccc3)NC(=O)[C@H](CCCNC(=N)N)NC(=O)[C@H](CCSC)NC(=O)CNC(=O)[C@H](C)NC(=O)[C@H](CC(=O)O)NC(=O)[C@H](CCCCN)NC(=O)[C@@H]3CSSC[C@@H](C(=O)N[C@H](C(=O)N4CCC[C@H]4C(=O)N[C@@H](CCCCN)C(=O)O)[C@@H](C)O)NC(=O)[C@H](Cc4c[nH]cn4)NC(=O)[C@H](CSSC[C@H](NC(=O)[C@H](CCC(N)=O)NC(=O)[C@@H]4CCCN4C(=O)[C@H](CO)NC(=O)CNC(=O)[C@H](CO)NC1=O)C(=O)N[C@@H](CC(C)C)C(=O)N[C@@H](CCCCN)C(=O)N1CCC[C@H]1C(=O)N3)NC(=O)[C@H](CCCCN)NC(=O)[C@H](CCCNC(=N)N)NC(=O)[C@H](CC(N)=O)NC(=O)[C@H](CCSC)NC2=O)C(C)C [KTX1, Kaliotoxin-1]	Vm24 > HgTX1 > KTX1	< 1/600	significant inhibition	ShK > KTX1 >> MTX; also recorded: ShK > KTX1 > MTX
CC[C@H](C)[C@@H]1NC(=O)[C@@H]2CSSC[C@H](NC(=O)[C@H](CO)NC(=O)[C@@H](N)C(C)C)C(=O)N[C@@H]([C@@H](C)O)C(=O)NCC(=O)N[C@@H](CO)C(=O)N[C@@H](CCCCN)C(=O)N[C@@H](CC(=O)O)C(=O)N[C@@H](CSSC[C@@H](C(=O)N[C@@H](CCCCN)C(=O)N[C@H]3CSSC[C@@H](C(N)=O)NC(=O)CNC(=O)[C@H](Cc4ccc(O)cc4)NC3=O)NC(=O)[C@H](CO)NC(=O)[C@H](CCCCN)NC(=O)[C@H](CC(N)=O)NC1=O)C(=O)N[C@@H](Cc1ccc(O)cc1)C(=O)N[C@@H](C)C(=O)N1CCC[C@H]1C(=O)N[C@H]1CSSC[C@H](NC(=O)CNC(=O)[C@H]([C@@H](C)O)NC(=O)[C@H](CCC(N)=O)NC(=O)[C@H](CCCCN)NC(=O)[C@H](CCCNC(=N)N)NC1=O)C(=O)N1CCC[C@H]1C(=O)N[C@@H](CC(N)=O)C(=O)N[C@@H](C)C(=O)N[C@@H](CCCCN)C(=O)N2 [MTX, Maurotoxin] (HELM PEPTIDE1{V.S.C.T.G.S.K.D.C.Y.A.P.C.R.K.Q.T.G.C.P.N.A.K.C.I.N.K.S.C.K.C.Y.G.C.[am]}$PEPTIDE1,PEPTIDE1,3:R3-24:R3|PEPTIDE1,PEPTIDE1,9:R3-29:R3|PEPTIDE1,PEPTIDE1,13:R3-19:R3|PEPTIDE1,PEPTIDE1,31:R3-34:R3$$$V2.0; N-terminus and C-terminus assumed)				ShK > KTX1 >> MTX; also recorded: ShK > KTX1 > MTX
CC[C@H](C)[C@@H]1NC(=O)[C@@H](NC(=O)[C@H](CO)NC(=O)[C@@H](N)CCCNC(=N)N)CSSC[C@@H](C(=O)O)NC(=O)[C@H]([C@@H](C)O)NC(=O)CNC(=O)[C@@H]2CSSC[C@@H]3NC(=O)[C@H](CCC(N)=O)NC(=O)[C@H](Cc4ccccc4)NC(=O)[C@H](C)NC(=O)[C@H]([C@@H](C)O)NC(=O)[C@H](CSSC[C@H](NC(=O)[C@H](Cc4ccccc4)NC(=O)[C@H](CO)NC(=O)[C@H](CC(C)C)NC(=O)[C@H](CCCNC(=N)N)NC(=O)[C@H](Cc4ccc(O)cc4)NC(=O)[C@H](CCCCN)NC(=O)[C@H](CCSC)NC(=O)[C@H](CO)NC(=O)[C@H](Cc4c[nH]cn4)NC(=O)[C@H](CCCCN)NC3=O)C(=O)N[C@@H](CCCNC(=N)N)C(=O)N[C@@H](CCCCN)C(=O)N[C@@H]([C@@H](C)O)C(=O)N2)NC(=O)[C@H](CCCNC(=N)N)NC(=O)[C@H](CO)NC(=O)[C@H](CCCCN)NC(=O)[C@@H]2CCCN2C(=O)[C@H]([C@@H](C)CC)NC(=O)[C@H]([C@@H](C)O)NC(=O)[C@H](CC(=O)O)NC1=O [ShK, Stichodactyla toxin]				ShK > KTX1 >> MTX; also recorded: ShK > KTX1 > MTX
CC[C@H](C)[C@H](NC(=O)[C@H](C)NC(=O)[C@H](C)NC(=O)[C@H](C)N)C(=O)N[C@@H](CO)C(=O)N[C@H]1CSSC[C@@H]2NC(=O)[C@H](CCCCN)NC(=O)CNC(=O)[C@H](CC(N)=O)NC(=O)[C@H](CCCCN)NC(=O)[C@@H]3CSSC[C@@H](C(N)=O)NC(=O)[C@H](Cc4ccc(O)cc4)NC(=O)[C@H](Cc4ccc(O)cc4)NC(=O)[C@@H]4CSSC[C@H](NC(=O)[C@H](CCCCN)NC(=O)[C@@H]5CCCN5C(=O)[C@@H]5CCCN5C(=O)[C@H](CSSC[C@H](NC(=O)[C@H](CCCCN)NC(=O)[C@H](CCCNC(=N)N)NC(=O)[C@H](CC(N)=O)NC(=O)[C@H](CCSC)NC2=O)C(=O)N[C@@H](CCCCN)C(=O)N4)NC(=O)[C@H](CCC(=O)O)NC(=O)[C@@H]2CCCN2C(=O)[C@H](CO)NC(=O)CNC(=O)[C@H](C(C)C)NC1=O)C(=O)N[C@@H](CCCNC(=N)N)C(=O)N[C@@H](C)C(=O)N[C@@H](CCC(N)=O)C(=O)NCC(=O)N3 [Vm24, Vm24 toxin]	Vm24 > HgTX1 > KTX1	approximately 1	significant inhibition	
